# Test results published in article PMC10447463, “Data-mining unveils structure–property–activity correlation of viral infectivity enhancing self-assembling peptides” (Nature Communications, 2023).
# Like-named read-outs stand apart in the source and are kept apart here.
# Columns and labels:
# [1] = type: physicochemical; parameters: key to Fibril / Fibril Formation / TEM 2cat / Fibril: 1 = fibrils present; 0 non-fibrillar structures; conditions: for Fibril / Fibril / Fibril Formation: TEM; for Fibril / Fibril Formation: 1 mg/mL, uranyl acetate stain, qualitative
# [2] = system: HIV-1 infection of TZM-bl cells; experiment: HIV-1 infectivity enhancement assay, β-galactosidase luminescence; type: cell-based; conditions: for Rel-EFC / Log10 Infection Rel EFC: 1.3 µM peptide; for Rel-EFC: infection relative to EF-C (QCKIKQIINMWQ = 1); for Log10 Infection Rel EFC: log10 of infection relative to EF-C; for Log Infectivity: Fig. S7 panel A (plotted against β-sheet content), Log10 infection relative to EF-C, TZM-bl cells, asymmetric std dev errors; for Log10 Infection Rel EF-C: HIV-1 infection of TZM-bl cells; for Abs. Inf.: absolute infection signal, HIV-1 on TZM-bl cells, β-galactosidase luminescence; for Log10 Inf. rel. to EF-C: log10 of HIV-1 infection of TZM-bl cells relative to EF-C (EF-C = 0)
# [3] = Zeta-potential measurement; type: physicochemical
# Method in brief: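 Samples: 1 mg/mL in PBS pH 7.4 (from DMSO), 1 d at RT, then diluted in 1 mM KCl immediately before measurement. Triplicates, two independent runs averaged.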
# [4] = Turbidity, derived count rate of scattered light; type: physicochemical; conditions: for Count Rate: derived count rate of scattered light (turbidity); for Log10 Count Rate: turbidity, derived count rate of scattered light, data of Figure 2D
# [5] = β-sheet content by ATR-FT-IR; type: physicochemical; conditions: Fig. S7 panel A; β-sheet content by ATR-FT-IR
# Method in brief: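 Conversion rate: fluorescamine fluorescence (ex 365/em 470 nm, 20 min RT) of 3 kDa filtrate versus unfiltered PNF, CR = 100 − 100 × filtrate/original intensity, triplicates. β-sheet content came from ATR FT-IR of lyophilized 1 mg/mL PNF powder, 64 scans.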
# [6] = FigS12 panel A, fibril category by TEM
# [7] = 1 = fibrils present, 0 = non-fibrillar
# [8] = 1 = fibrils present, 0 = non-fibrillar structures
# [9] = Log10 of infection rate relative to EF-C, Figure 3A source data
# [10] = infection rate relative to EF-C, log10, data of Figure 2D
# [11] = infection rate relative to EF-C, log10, source data of Figure 2C
# [12] = zeta-potential of peptide, source data of Figure 2C
# [13] = zeta-potential of the peptide assemblies, mean, Figure 3A source data
Sequence,TEM 2cat ([1]; Fig S10 panel D),"TEM 2cat [1, 6]",Fibril ([1]; FigS12 panel B),Fibril / Fibril Formation [1],"Fibril [1, 7]","Fibril [1, 8]",Rel-EFC [2],Log10 Infection Rel EFC [2],Log Infectivity [2],"Log10 Infection Rel EF-C [2, 9]","Log10 Infection Rel EF-C [2, 10]","Log10 Infection Rel EF-C [2, 11]",Abs. Inf. [2],Log10 Inf. rel. to EF-C [2],Zeta-Pot. [3],"Zeta-Potential / mV [3, 12] [mV]","Zeta-Potential / mV [3, 13] [mV]",Count Rate [4],Log10 Count Rate [4],b -sheet / % [5] [%],other results
QCKAKAQA,0,0,0,0,0,0,"0,03","-1,6",-1.598,-1.6,-1.598,-1.598,806.7,-1.598,0.674,0.4918,0.67,1319.1,3.12,34.06,–
FDPFDPFDP,0,0,0,0,0,0,"0,02","-1,63",-1.6317,-1.63,-1.6317,-1.6317,346.7,-1.6317,-10.9,-6.68,-10.9,258,2.412,48.89,–
KIKIQINMWA,1,–,–,1,1,1,"0,69","-0,16",-0.1642,-0.16,-0.1642,-0.1642,–,-0.1642,–,16.43,14.7,1101.2,3.042,49.91,"TEM 2cat ([1]; category: fibrils present or non-fibrillar): 1; Log10 of Rel to EFC (Feb2021) ([2]; Log10 of infection relative to EF-C, all peptides of FigS16): -0.16; Zeta-Pot. ([3]; zeta potential of peptide assemblies): 14.7"
KYKGAIIGNIK,0,0,0,0,0,0,0,"-2,51",-2.508,-2.51,-2.508,-2.508,80,-2.508,-9.14,-5.205,-9.14,44.1,1.644,44.63,–
NMWQKVGTPL,0,0,0,0,0,0,"0,02","-1,61",-1.607,-1.61,-1.607,-1.607,276.7,-1.607,-9.62,-5.334,-9.62,26.97,1.431,32.26,–
NMWQKIKQII,0,0,0,0,0,0,"0,03","-1,6",-1.5971,-1.6,-1.5971,-1.5971,283.3,-1.5971,-0.213,2.325,-0.21,982.4,2.992,38.14,–
